Key:
Details in all cases: exposure time: 15 min to 3 h acute
Dugesia japonica [1] = assay: loss of phototaxis incidence (% planarians (vehicle-normalised)); higher = higher incidence or increase relative to vehicle control
Procedure: (§1)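 Adult asexual Dugesia japonica planarians (1 per well, 48-well plate, n=24 over technical triplicates) were exposed acutely (15 min to 3 h) to each compound (0.5% DMSO or water vehicle) and screened on a robotic platform for crawl-out, stickiness, body shape, phototaxis, noxious-heat scrunching and locomotion endpoints. Binary endpoints are incidence rate x100 normalised to in-plate vehicle controls. Continuous endpoints are the median response normalised to the plate vehicle median, as % change or difference. Negative incidences after vehicle subtraction were set to 0.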

Dugesia japonica [2] = assay: speed first 30 s blue light vs vehicle (% change vs vehicle); higher = higher incidence or increase relative to vehicle control
Procedure: as §1

Dugesia japonica [3] = assay: anxiety (time in outer well region) vs vehicle (% change vs vehicle); higher = higher incidence or increase relative to vehicle control
Procedure: as §1

Dugesia japonica [4] = assay: resting fraction in dark vs vehicle (difference in fraction x100 vs vehicle); higher = higher incidence or increase relative to vehicle control
Procedure: as §1

Dugesia japonica [5] = assay: loss of heat-induced scrunching incidence (% planarians (vehicle-normalised)); higher = higher incidence or increase relative to vehicle control
Procedure: as §1

Dugesia japonica [6] = assay: total locomotor bursts minus vehicle (bursts difference vs vehicle); higher = higher incidence or increase relative to vehicle control
Procedure: as §1

Dugesia japonica [7] = assay: stickiness incidence (% planarians (vehicle-normalised)); higher = higher incidence or increase relative to vehicle control
Procedure: as §1

Dugesia japonica [8] = assay: pharynx extrusion incidence (% planarians (vehicle-normalised)); higher = higher incidence or increase relative to vehicle control
Procedure: as §1

Dugesia japonica [9] = assay: speed second 30 s blue light vs vehicle (% change vs vehicle); higher = higher incidence or increase relative to vehicle control
Procedure: as §1

Dugesia japonica [10] = assay: resting fraction in blue light vs vehicle (difference in fraction x100 vs vehicle); higher = higher incidence or increase relative to vehicle control
Procedure: as §1

Dugesia japonica [11] = assay: corkscrew incidence (% planarians (vehicle-normalised)); higher = higher incidence or increase relative to vehicle control
Procedure: as §1

Dugesia japonica [12] = assay: hyperkinesis incidence (% planarians (vehicle-normalised)); higher = higher incidence or increase relative to vehicle control
Procedure: as §1

Dugesia japonica [13] = assay: C-shape incidence (% planarians (vehicle-normalised)); higher = higher incidence or increase relative to vehicle control
Procedure: as §1

Dugesia japonica [14] = assay: speed in dark vs vehicle (% change vs vehicle); higher = higher incidence or increase relative to vehicle control
Procedure: as §1

Dugesia japonica [15] = assay: noxious heat displacement strength vs vehicle (% change vs vehicle); higher = higher incidence or increase relative to vehicle control
Procedure: as §1

Dugesia japonica [16] = assay: contracted body shape incidence (% planarians (vehicle-normalised)); higher = higher incidence or increase relative to vehicle control
Procedure: as §1

Dugesia japonica [17] = assay: crawl-out incidence (% planarians); higher = higher incidence or increase relative to vehicle control
Procedure: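 Adult asexual Dugesia japonica planarians (1 per well, 48-well plate, n=24 over technical triplicates) were exposed acutely (15 min to 3 h) to each compound (0.5% DMSO or water vehicle) and screened on a robotic platform for crawl-out, stickiness, body shape, phototaxis, noxious-heat scrunching and locomotion endpoints. Binary endpoints are incidence rate x100. Continuous endpoints are the median response normalised to the plate vehicle median, as % change or difference. Negative incidences after vehicle subtraction were set to 0.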

Dugesia japonica [18] = assay: any abnormal body shape incidence (% planarians (vehicle-normalised)); higher = higher incidence or increase relative to vehicle control
Procedure: as §1

| SMILES | loss of phototaxis incidence (Dugesia japonica [1]) | speed first 30 s blue light (Dugesia japonica [2]) | anxiety (Dugesia japonica [3]) | resting fraction in dark (Dugesia japonica [4]) | loss of heat-induced scrunching incidence (Dugesia japonica [5]) | total locomotor bursts minus vehicle (Dugesia japonica [6]) | stickiness incidence (Dugesia japonica [7]) | pharynx extrusion incidence (Dugesia japonica [8]) | speed second 30 s blue light (Dugesia japonica [9]) | resting fraction in blue light (Dugesia japonica [10]) | corkscrew incidence (Dugesia japonica [11]) | hyperkinesis incidence (Dugesia japonica [12]) | C-shape incidence (Dugesia japonica [13]) | speed in dark (Dugesia japonica [14]) | noxious heat displacement strength (Dugesia japonica [15]) | contracted body shape incidence (Dugesia japonica [16]) | crawl-out incidence (Dugesia japonica [17]) | any abnormal body shape incidence (Dugesia japonica [18]) |
| --- | --- | --- | --- | --- | --- | --- | --- | --- | --- | --- | --- | --- | --- | --- | --- | --- | --- | --- |
| O=C1CCc2ccc(OCCCCN3CCN(c4cccc(Cl)c4Cl)CC3)cc2N1 [aripiprazole] (3.16 µM) | 45.8 | 18.9 | 0.35 | -2.43 | 4.17 | -2.5 | ≤ 0 | 0 | 8.71 | 0.05 | 0 | 4.17 | 0 | 27.4 | 0.14 | 0 | 0 | 4.17 |
| O=C1CCc2ccc(OCCCCN3CCN(c4cccc(Cl)c4Cl)CC3)cc2N1 [aripiprazole] (10 µM) | 25 | -70.8 | -16.3 | 34.5 | 16.7 | 31 | ≤ 0 | 0 | -63.1 | 19.8 | 4.17 | 4.17 | 12.5 | -46.8 | -17.3 | 0 | 0 | 20.8 |
| O=C1CCc2ccc(OCCCCN3CCN(c4cccc(Cl)c4Cl)CC3)cc2N1 [aripiprazole] (31.6 µM) | 25 | -79.9 | -46.5 | 56.6 | 70.8 | 53 | ≤ 0 | 4.17 | -81.8 | 32 | 4.17 | 12.5 | 62.5 | -62.3 | -38.6 | 0 | 0 | 70.8 |
| O=C1CCc2ccc(OCCCCN3CCN(c4cccc(Cl)c4Cl)CC3)cc2N1 [aripiprazole] (100 µM) | 47.8 | -88.7 | -67.2 | 56.9 | 78.3 | 55 | ≤ 0 | 0 | -88.8 | 69.8 | 0 | 17.4 | 60.9 | -64.8 | -49 | 0 | 4.17 | 65.2 |
| O=C(CCCN1CCC(O)(c2ccc(Br)cc2)CC1)c1ccc(F)cc1 [bromperidol] (3.16 µM) | ≤ 0 | -55.1 | -1.33 | 24 | 47.6 | 11 | ≤ 0 | 0 | -53.4 | 28.6 | 14.3 | 47.6 | 4.76 | -33.9 | -37 | 9.52 | 33.3 | 57.1 |
| O=C(CCCN1CCC(O)(c2ccc(Br)cc2)CC1)c1ccc(F)cc1 [bromperidol] (10 µM) | ≤ 0 | -49.8 | 7.64 | 50.5 | 47.6 | 8 | ≤ 0 | 0 | -60.1 | 38 | 42.9 | 52.4 | 0 | -40.7 | -32.1 | 4.76 | 25 | 66.7 |
| O=C(CCCN1CCC(O)(c2ccc(Br)cc2)CC1)c1ccc(F)cc1 [bromperidol] (31.6 µM) | ≤ 0 | -69 | 20.6 | 43.3 | 52.2 | 0.5 | ≤ 0 | 0 | -63.1 | 37.3 | 21.7 | 69.6 | 4.35 | -41 | -36.2 | 30.4 | 8.33 | 73.9 |
| O=C(CCCN1CCC(O)(c2ccc(Br)cc2)CC1)c1ccc(F)cc1 [bromperidol] (100 µM) | ≤ 0 | -53.3 | 21.1 | 43.4 | 28.6 | 17 | ≤ 0 | 0 | -63.4 | 40.4 | 23.8 | 42.9 | 4.76 | -39.1 | -48 | 4.76 | 25 | 57.1 |
| CC(NC(C)(C)C)C(=O)c1cccc(Cl)c1 (stereo not drawn) [bupropion] (31.6 µM) | 20.8 | -59.5 | 2.47 | 17.5 | 16.7 | -7.5 | ≤ 0 | 0 | -19.4 | 23.4 | 0 | 0 | 0 | -1.56 | -22.3 | 4.17 | 0 | 0 |
| CC(NC(C)(C)C)C(=O)c1cccc(Cl)c1 (stereo not drawn) [bupropion] (100 µM) | 4.17 | 9.9 | 3.91 | 25.7 | 12.5 | -1 | 13 | 0 | 20.6 | -3.29 | 0 | 0 | 0 | -35.4 | -32.4 | 0 | 0 | 0 |
| CC(NC(C)(C)C)C(=O)c1cccc(Cl)c1 (stereo not drawn) [bupropion] (316 µM) | ≤ 0 | -72 | 5.33 | 51.6 | 8.33 | -7 | 29.2 | 0 | -21.6 | 25.2 | 0 | 4.17 | 0 | 22.5 | -7.65 | 0 | 0 | 0 |
| CC(NC(C)(C)C)C(=O)c1cccc(Cl)c1 (stereo not drawn) [bupropion] (1000 µM) | ≤ 0 | -64.2 | 13.4 | 56.1 | 83.3 | -2.5 | 37.5 | 0 | -9.8 | 19.6 | 33.3 | 45.8 | 0 | -56.9 | -39.5 | 0 | 0 | 50 |
| O=C1CC2(CCCC2)CC(=O)N1CCCCN1CCN(c2ncccn2)CC1 [buspirone] (3.16 µM) | 16.7 | -21.3 | -2.65 | 4.15 | ≤ 0 | 4.25 | 4.17 | 0 | -34.4 | 8.98 | 0 | 8.33 | 0 | 8.61 | -34.1 | 0 | 0 | 8.33 |
| Cc1cc2c(s1)Nc1ccccc1N=C2N1CCN(C)CC1 [olanzapine] (10 µM) | 4.17 | -85.6 | -12.4 | 72.3 | 58.3 | 20 | ≤ 0 | 0 | -80.9 | 63.5 |  | 58.3 | 4.17 | -68 | -28.1 | 0 | 0 | 58.3 |
| Cc1cc2c(s1)Nc1ccccc1N=C2N1CCN(C)CC1 [olanzapine] (31.6 µM) | 17.4 | -93.9 | 24.7 | 78.3 | 75 | 6 | 16.7 | 0 | -89.9 | 77.7 | 16.7 | 62.5 | 4.17 | -71.9 | -52.3 |  | 4.17 | 75 |

From the supplement of paper PMC11781733
